Reference: ChEMBL document CHEMBL1201862, “PubChem BioAssay data set” (2004)
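Interpolation was linear, between the two tested concentrations surrounding the appropriate level; five concentrations were tested over 48 hours in 96-well plates. GI50 is the concentration that inhibits growth by half.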 Activity calls are given as the source filed them. Cut-off read from the data, not from the text of the source: active = GI50 up to about 1.1 µM and inactive = higher.

Experiments:
Assay in all cases: inhibition of tumour cell growth, NCI panel, 48 h
MDA-MB-435 = test system: MDA-MB-435
SF-295 = test system: SF-295
SF-268 = test system: SF-268
OVCAR-5 = test system: OVCAR-5
MCF7 = test system: MCF7
NCI-H460 = test system: NCI-H460
DU-145 = test system: DU-145
BT-549 = test system: BT-549
COLO 205 = test system: COLO 205
SNB-75 = test system: SNB-75
MDA-MB-231 = test system: MDA-MB-231
SNB-19 = test system: SNB-19
RXF 393 = test system: RXF 393
Malme-3M = test system: Malme-3M
786-0 = test system: 786-0
NCI/ADR-RES = test system: NCI/ADR-RES
KM12 = test system: KM12
HCT-15 = test system: HCT-15
HL-60 = test system: HL-60
MDA-N = test system: MDA-N

SMILES | GI50 (MDA-MB-435) | GI50 (SF-295) | GI50 (SF-268) | GI50 (OVCAR-5) | GI50 (MCF7) | GI50 (NCI-H460) | GI50 (DU-145) | GI50 (BT-549) | GI50 (COLO 205) | GI50 (SNB-75) | GI50 (MDA-MB-231) | GI50 (SNB-19) | GI50 (RXF 393) | GI50 (Malme-3M) | GI50 (786-0) | GI50 (NCI/ADR-RES) | GI50 (KM12) | GI50 (HCT-15) [µM] | GI50 (HL-60) | GI50 (MDA-N)
COc1nc(OC)nc(-c2cccc(F)c2)n1 | 15 µM (inactive) | 13.4 µM (inactive) | 14 µM (inactive) | 11.5 µM (inactive) | 15.9 µM (inactive) | 14.9 µM (inactive) | 13.2 µM (inactive) | 14 µM (inactive) | 15.4 µM (inactive) | 21.2 µM (inactive) | 14.5 µM (inactive) | 16.9 µM (inactive) | 15.9 µM (inactive) | 15.2 µM (inactive) | 19 µM (inactive) | 14.3 µM (inactive) | 15.7 µM (inactive) | 13.7 | 24.3 µM (inactive) | 
COc1ccc2nc3ccc(OC)cc3c(SCc3ccc([N+](=O)[O-])cc3)c2c1 | > 100 µM (inactive) | 31.5 µM (inactive) | 54.7 µM (inactive) | > 100 µM (inactive) |  | > 100 µM (inactive) | > 100 µM (inactive) |  | > 100 µM (inactive) | 37.1 µM (inactive) | 39.2 µM (inactive) | > 100 µM (inactive) | > 100 µM (inactive) | > 100 µM (inactive) | 24.7 µM (inactive) | 67 µM (inactive) | > 100 µM (inactive) | > 100 | > 100 µM (inactive) | > 100 µM (inactive)
C=C(NC(=O)C(=C)NC(=O)c1csc(C2=NC3c4csc(n4)C4NC(=O)c5csc(n5)C(C(C)(O)C(C)O)NC(=O)C5CSC(=N5)/C(=C/C)NC(=O)C(C(C)O)NC(=O)c5csc(n5)C3(CC2)NC(=O)C(C)NC(=O)C(=C)NC(=O)C(C)NC(=O)C(C(C)CC)NC2C=Cc3c(C(C)O)cc(nc3C2O)C(=O)OC4C)n1)C(N)=O (stereo unspecified) |  | 4 µM (inactive) |  | 11.8 µM (inactive) |  | 1.72 µM (inactive) |  |  |  | 1.82 µM (inactive) |  | 2.69 µM (inactive) |  | 1.63 µM (inactive) | 1.54 µM (inactive) | > 58.3 µM (inactive) | 1.93 µM (inactive) | 4.12 | 2.69 µM (inactive) | 
C1=CN2C[n+]3cccc(OCc4ccccc4)c3N=C2C(OCc2ccccc2)=C1 | 14.4 µM (inactive) | 6.84 µM (inactive) | 6.25 µM (inactive) | 52 µM (inactive) | 13.5 µM (inactive) | 32.6 µM (inactive) | 6.92 µM (inactive) | 0.344 µM (active) | 3.88 µM (inactive) | 20.1 µM (inactive) | 16.8 µM (inactive) | 5.18 µM (inactive) | 44.9 µM (inactive) | 12.3 µM (inactive) | 15.3 µM (inactive) | > 100 µM (inactive) |  | > 100 | 0.142 µM (active) | 
CCOC(OCC)[C@H](N)[C@@H](O)[C@@H](O)[C@H]1COC(C)(C)O1 | > 100 µM (inactive) | > 100 µM (inactive) | > 100 µM (inactive) | > 100 µM (inactive) | > 100 µM (inactive) |  | > 100 µM (inactive) |  | > 100 µM (inactive) | > 100 µM (inactive) | > 100 µM (inactive) | > 100 µM (inactive) |  | > 100 µM (inactive) | > 100 µM (inactive) | > 100 µM (inactive) | > 100 µM (inactive) | > 100 |  | > 100 µM (inactive)
CC(=O)C1=C(C)N(c2ccccc2)C2(O)C=CC(O)=C3C(=O)c4ccccc4C(=O)C312 (stereo unspecified) | 2.45 µM (inactive) | 14.9 µM (inactive) | 20.2 µM (inactive) | 15.8 µM (inactive) | 22.3 µM (inactive) | 8.87 µM (inactive) | 9.04 µM (inactive) | 13.2 µM (inactive) | 6.18 µM (inactive) | 35.2 µM (inactive) | 17.7 µM (inactive) | 17.1 µM (inactive) | 11.6 µM (inactive) | 0.748 µM (active) | 20 µM (inactive) | 3.36 µM (inactive) | 13.5 µM (inactive) | 6.47 | 5.69 µM (inactive) | 
COc1cc(NS(C)(=O)=O)ccc1NCc1c[nH]c2ccc3ncccc3c12 | 19.3 µM (inactive) | 18.5 µM (inactive) | 22.4 µM (inactive) | 20.9 µM (inactive) | 19.4 µM (inactive) | 18.2 µM (inactive) | 23.9 µM (inactive) | 18.9 µM (inactive) | 15.6 µM (inactive) | 14.3 µM (inactive) | 19.7 µM (inactive) | 30.1 µM (inactive) | 5.55 µM (inactive) | 20.5 µM (inactive) | 15.6 µM (inactive) | 20.3 µM (inactive) | 17.1 µM (inactive) | 21.7 | 0.871 µM (active) | 
N#CCCC(CC#N)N1CCN(C(CC#N)CCC#N)CC1 (stereo unspecified) |  | > 100 µM (inactive) | > 100 µM (inactive) | > 100 µM (inactive) | > 100 µM (inactive) | > 100 µM (inactive) | > 100 µM (inactive) | > 100 µM (inactive) | > 100 µM (inactive) | > 100 µM (inactive) |  | > 100 µM (inactive) | > 100 µM (inactive) | > 100 µM (inactive) | > 100 µM (inactive) | > 100 µM (inactive) |  | > 100 | > 100 µM (inactive) | > 100 µM (inactive)
CC1(C)S[C@H](CN)N[C@H]1C(=O)OC(c1ccccc1)c1ccccc1 | 30.3 µM (inactive) | 41.7 µM (inactive) | 88.1 µM (inactive) | 60.8 µM (inactive) | 61.9 µM (inactive) |  | > 100 µM (inactive) | 24.8 µM (inactive) | 17.6 µM (inactive) | 84.3 µM (inactive) | 35.2 µM (inactive) |  | 63.5 µM (inactive) | 31.4 µM (inactive) | 48.5 µM (inactive) | > 100 µM (inactive) | 38.5 µM (inactive) | 36.1 | 16.7 µM (inactive) | 
NC1=NS(=O)(=O)Nc2nc(-c3ccc(Cl)cc3)[nH]c21 |  | > 100 µM (inactive) | > 100 µM (inactive) | > 100 µM (inactive) |  | > 100 µM (inactive) |  |  | > 100 µM (inactive) | 62.7 µM (inactive) |  | > 100 µM (inactive) | > 10 µM (inactive) | > 100 µM (inactive) | > 100 µM (inactive) |  | > 100 µM (inactive) | > 100 | > 100 µM (inactive) | 
c1ccc(CNn2nnc3ccccc32)cc1 |  | > 100 µM (inactive) | > 100 µM (inactive) | > 100 µM (inactive) |  | > 100 µM (inactive) |  |  | > 100 µM (inactive) | > 100 µM (inactive) |  | > 100 µM (inactive) | > 100 µM (inactive) | > 100 µM (inactive) | > 100 µM (inactive) |  | > 100 µM (inactive) | > 100 | > 100 µM (inactive) | 
CCOC(=O)Cn1nc2ccc(Nc3c(C)[n+]([O-])c4cc(F)c(OCC)cc4[n+]3[O-])cc2n1 | > 100 µM (inactive) | 44.2 µM (inactive) | 50.9 µM (inactive) | > 100 µM (inactive) | > 100 µM (inactive) | > 100 µM (inactive) | > 100 µM (inactive) |  |  |  | 46.8 µM (inactive) |  | 20.7 µM (inactive) |  | 29.8 µM (inactive) | > 100 µM (inactive) | > 100 µM (inactive) | > 100 | > 100 µM (inactive) | > 100 µM (inactive)
CCC1(O)CC2CC(=O)OC2C1O (stereo unspecified) | > 100 µM (inactive) | > 100 µM (inactive) | > 100 µM (inactive) | > 100 µM (inactive) | > 100 µM (inactive) | > 100 µM (inactive) | > 100 µM (inactive) |  | > 100 µM (inactive) | > 100 µM (inactive) | > 100 µM (inactive) | > 100 µM (inactive) | > 100 µM (inactive) | > 100 µM (inactive) | > 100 µM (inactive) | > 100 µM (inactive) | > 100 µM (inactive) | > 100 |  | > 100 µM (inactive)
O=C(Nc1ccc(Cl)cc1C(F)(F)F)C(=O)C1CCCS1(=O)=O (stereo unspecified) |  | > 100 µM (inactive) | > 100 µM (inactive) | > 100 µM (inactive) |  | > 100 µM (inactive) |  |  | > 100 µM (inactive) | > 100 µM (inactive) |  | > 100 µM (inactive) | > 100 µM (inactive) | > 100 µM (inactive) | > 100 µM (inactive) |  | > 100 µM (inactive) | > 100 | > 100 µM (inactive) | 
CCOC(=O)C1C(C(C)C)C2(C#N)C(=N)OC1(C)C2(C#N)C#N (stereo unspecified) | 35.3 µM (inactive) | > 100 µM (inactive) | > 100 µM (inactive) | > 100 µM (inactive) | 59.4 µM (inactive) |  | > 100 µM (inactive) |  | 7.46 µM (inactive) | 13.3 µM (inactive) | > 100 µM (inactive) | > 100 µM (inactive) | 36.3 µM (inactive) | 40.8 µM (inactive) | 54 µM (inactive) | 45.5 µM (inactive) | > 100 µM (inactive) | 49.3 | 30 µM (inactive) | 16.2 µM (inactive)
COc1ccc(N2C(=O)C3ON(C(C(N)=O)c4ccccc4)C(c4ccc(-c5ccccc5)cc4)C3C2=O)cc1 (stereo unspecified) | > 50 µM (inactive) | > 50 µM (inactive) | > 50 µM (inactive) | > 50 µM (inactive) | 31.3 µM (inactive) | > 50 µM (inactive) | > 50 µM (inactive) | > 50 µM (inactive) | 25.2 µM (inactive) | > 50 µM (inactive) | > 50 µM (inactive) | > 50 µM (inactive) | > 50 µM (inactive) | 31.8 µM (inactive) | > 50 µM (inactive) | > 50 µM (inactive) | > 50 µM (inactive) | > 50 | > 50 µM (inactive) | 
COc1ccc([C@@H]2CC(=O)NCCCNCCCCNCCCN2)cc1 |  | > 100 µM (inactive) | > 100 µM (inactive) | > 100 µM (inactive) |  | > 100 µM (inactive) |  |  | > 100 µM (inactive) | > 100 µM (inactive) |  | > 100 µM (inactive) | > 100 µM (inactive) | > 100 µM (inactive) | > 100 µM (inactive) |  | > 100 µM (inactive) | > 100 | > 100 µM (inactive) | 
